Experimental data as given in patent US9155694B2, “Stabilized composition comprising at least one adrenergic compound” (ALK AG, priority 2009, dated 2015).

Experiments:
[1] = Further stability testing, thermal stress at 60° C. protected from light (Example 3); format: physicochemical
Protocol: (§1) The formulation solutions were prepared at a level of 1.0 mg/ml adrenaline (in the form of the tartrate), pH 3.4 containing 0.6% sodium chloride, with various molar ratios (0.25-0.59) of sodium metabisulfite added. The metabisulfite/adrenaline molar ratios tested were 0.25, 0.34, 0.42, 0.5 and 0.59, which correspond to sulfite/adrenaline ratios of 0.5, 0.68, 0.84, 1.0 and 1.18, respectively. For the ease of reference to the general description and claims of this specification, the said values correspond to a molar ratio of adrenaline to sulfite of 2.0, 1.47, 1.19, 1.0 and 0.85, respectively.
(§2) Each sample solution was split into two lots. For each sample solution, one lot was placed at the accelerated test temperature of 60° C., protected from light and the other lot placed in a photo-stability cabinet at 25° C. which provided 13400 lux visible light, 1.50 W·h/m^2 UV. Samples were pulled from both conditions at 0, 7, 14 and 28 days At each pull point, the appearance of the test solution was assessed, the pH measured and the adrenaline content measured together with impurities.

[2] = 1.0 mg/ml adrenaline (tartrate), pH 3.4, 0.6% sodium chloride; 25° C., 13400 lux visible light, 1.50 W·h/m^2 UV, up to 28 days
Protocol: as §1, §2

[3] = 60° C., weeks 0-4; FIGS. 8 and 9
Protocol: (§3) A 1.1 mg/ml solution of adrenaline (6.004×10^−3 M), in the form of the tartrate, pH 3.4 and containing 0.6% sodium chloride was used. A range of metabisulfite antioxidant concentrations, with and without admixture of 0.25% di-sodium edetate as chelating agent were tested. The metabisulfite/adrenaline molar ratios tested were 0.1, 0.2, 0.5, 1.0 and 1.5, which correspond to sulfite/adrenaline ratios of 0.2, 0.4, 1.0, 2.0 and 3.0, respectively. For the ease of reference to the general description and claims of this specification, the said values correspond to a molar ratio of adrenaline to sulfite of 5.0, 2.5, 1.0, 0.5 and 0.33, respectively.
The accelerated test temperature was 60° C., protected from light, and samples were pulled at 0, 7, 14, 21 and 28 days. At each pull point, the appearance of the test solution was assessed, the pH measured and the solution assayed for adrenaline content. The appearance of degradation products was noted as area %. […]
Each sample solution was split into two lots. […] Samples were pulled from both conditions at 0, 7, 14 and 28 days At each pull point, the appearance of the test solution was assessed, the pH measured and the adrenaline content measured together with impurities.

[4] = auto-oxidation rate increases with pH
[5] = 0.25% di-sodium edetate admixed; 60° C., up to 28 days; at the metabisulfite levels contemplated
Protocol: as §3
The accelerated test temperature was 60° C., protected from light, and samples were pulled at 0, 7, 14, 21 and 28 days. At each pull point, the appearance of the test solution was assessed, the pH measured and the solution assayed for adrenaline content. The appearance of degradation products was noted as area %.
[adr]^+ relates to samples containing 0.025% di-sodium edetate, whereas [adr] relates to samples containing no chelating agent.

Row | Structure (SMILES) | best metabisulfite:adrenaline ratio on the basis of total impurities from heat stress ([1]; 1.0 mg/ml adrenaline (tartrate), pH 3.4, 0.6% sodium chloride, 60° C., up to 28 days) | first choice of metabisulfite content with respect to adrenaline ([1]; considering both stresses (thermal 60° C. and photo-stress), loss of adrenaline, FIGS. 4 and 5) | best metabisulfite:adrenaline ratio on the basis of total impurities from photo-stress [2] | optimum sulfite:adrenaline ratio [3] | pH for maximum stability of epinephrine in solution [4] | advantage of chelating agent for adrenaline solution stability [5]
1 | CNC[C@H](O)c1ccc(O)c(O)c1 [epinephrine, (R)-4-(1-hydroxy-2-(methylamino)ethyl)benzene-1,2-diol] | 0.42 | half molar | 0.5 | about 1.0 | about 3.4 | 
2 | O=C([O-])CN(CCN(CC(=O)[O-])CC(=O)O)CC(=O)O.[Na+].[Na+] [di-sodium edetate] |  |  |  |  |  | no advantage
